Test system: pigs, 75 min LAD balloon occlusion and 3 h reperfusion
Assay: Porcine ischemia/reperfusion model: global ejection fraction by contrast ventriculography
Assay type: in vivo, pig
Conditions: for Global Ejection Fraction, Baseline: before ischemia and dosing; for Global Ejection Fraction, 180 Minutes after End of Ischemia: control 34 ± 3
Text: Arterial access was achieved via bilateral femoral artery cut-downs for the insertion of 8F sheaths. Central venous and carotid access was achieved via a neck incision to expose the external jugular vein and common carotid artery. Animals were then anticoagulated with 50 U/kg of unfractionated heparin to maintain an activated clotting time (ACT) between 250-350 seconds, prior to ischemia. A 7-8 Fr pigtail catheter was placed in the left ventricular cavity to measure pressure and for injection of […] microspheres. Angiography was performed to define coronary anatomy and measure the diameter of the left anterior descending coronary artery (LAD) at the point of intended balloon occlusion. A coronary sinus catheter was placed via the external jugular vein under fluoroscopic guidance for coronary venous sampling. Baseline cardiodynamic and hemodynamic data were measured using a solid state transducer-tipped catheter in the left ventricle (Millar Instruments, Houston, Tex.) to measure left ventricular pressure, and a fluid-filled transducer connected to the side port of the femoral artery sheath to measure peripheral arterial pressure. Approximately 3-4 million neutron-activated microspheres (BioPhysics Assay Laboratory, Inc, Worcester, Ma) (15 μm) were delivered through a pig-tail catheter into the left ventricle over a 30 second period, to quantify regional myocardial blood flow (RMBF). Simultaneously with injection, a reference sample was withdrawn at a rate of 7 cc/min from the femoral artery sheath, for 90 seconds during and after injection of microspheres. A contrast ventriculogram (60° right anterior oblique) was obtained to assess global and regional myocardial function at baseline. An angioplasty balloon catheter sized to exceed ambient diameter by 1 mm (range chosen was 3.0-4.0 mm) was then inserted into the proximal LAD, after the first diagonal branch. […] In addition, 2% lidocaine (4-8 ml total) was administered during ischemia, as needed, to attenuate ventricular arrhythmias. Balloon occlusion time was 75 minutes with coronary occlusion confirmed by contrast angiography, ST segment changes on electrocardiography, and quantitatively confirmed by microspheres delivered at the end of ischemia, as described above. Episodes of ventricular fibrillation were immediately treated with electrical cardioversion delivered at 200 Joules. During the ischemic period, animals were randomly assigned to receive either saline vehicle or 2-O, 3-O desulfated heparin (ODSH) at a dose of 5 mg/kg, 15 mg/kg, or 45 mg/kg as an IV bolus at 2 minutes prior to deflation of the balloon (pharmacological postconditioning), and repeated at 90 minutes of reperfusion. Following deflation of the angioplasty balloon, animals underwent 3 hours of further reperfusion and observation. Microspheres were again injected to measure myocardial blood flow at 15 minutes of reperfusion and again at 180 minutes of reperfusion. At the end of 180 minutes of reperfusion, animals were euthanized with an IV injection of pentobarbital sodium (100 mg/kg) and the heart was excised to quantify the area at risk, infarct size, regional myocardial blood flow, and myeloperoxidase activity. Hemodynamic data (left ventricular and arterial blood pressure) and derived variables were recorded continuously using 10× and Datanalyst software (EMKA Technologies, Falls Church, Va.).
Left ventricular contrast angiography was performed at baseline, ischemia, and 180 minutes after relief of ischemia. Contrast (Hypaque, approximately 50 mL) was rapidly injected via a pigtail catheter using a power injector. Left ventricular ejection fraction (LVEF) and regional function of the antero-lateral wall was calculated using the area-length method, which outlined the ventricle at the end of systole and diastole. LVEF and regional function were analyzed independently by 2 blinded observers.

For 2-O, 3-O desulfated heparin [ODSH], the “Global Ejection Fraction, Ischemia” value (ODS 15 mg/kg (second line, r8)) was 23 ± 3%, the “Global Ejection Fraction, Baseline” value (ODS 15 mg/kg (second line, r8)) was 57 ± 4% and the “Global Ejection Fraction, 180 Minutes after End of Ischemia” value (shortened to “Global Ejection Fraction, 180 Minutes”) (ODS 15 mg/kg (second line, r8)) was 42 ± 4%. For the same substance, the “Global Ejection Fraction, Ischemia” value (ODS 45 mg/kg) was 30 ± 3%, the “Global Ejection Fraction, Baseline” value (ODS 45 mg/kg) was 60 ± 2% and the “Global Ejection Fraction, 180 Minutes” value (ODS 45 mg/kg) was 38 ± 6%. The “ejection fraction at 3 hours after the end of ischemia versus control” value (ODS-treated animals, all doses) was “tended to be higher”, the “Global Ejection Fraction, Baseline” value (line printed ODS 15 mg/kg (first of two, r7), control 52 ± 2) was 61 ± 2% and the “Global Ejection Fraction, Ischemia” value (line printed ODS 15 mg/kg (first of two, r7), control 25 ± 2) was 30 ± 3%. For the same substance, the “Global Ejection Fraction, 180 Minutes” value (line printed ODS 15 mg/kg (first of two, r7)) was 42 ± 5%.
